{"source": "patent US20230103250A1", "about": "“DRUG SUBSTANCE OF L[…] MEDICINAL COMPOSITION COMPRISING SAME” (Eisai R&D Management Co., Ltd., priority 2020, published 2023)", "assay": "Particle size (D90) of lemborexant active pharmaceutical ingredient by laser diffraction/scattering", "format": "physicochemical", "conditions": "for D90 (μm): after pulverization with 160UPZ (Example 1, Table 2), Microtrack MT3300EXII; for Particle size (D90 (μm)): pulverized lemborexant API lots, Table 1", "method": "The particle size of the granular material, which is a lemborexant active pharmaceutical ingredient, can be measured by a laser diffraction/scattering method.\nA sample suspension is prepared by dispersing about 30 mg of a lemborexant active pharmaceutical ingredient in 50 mL of a 0.1% polysorbate 20 aqueous solution as a dispersion solvent. The sample suspension is put into a diffractometer and an appropriate amount of dispersion solvent is added. The particle size distribution of the sample suspension is measured, and the value of the particle size of the sample is recorded as a cumulative diameter distribution.\nParticle size distribution measurement conditions for the diffractometer may be as follows.\nNumber of measurements: 3 times\nMeasurement time: 30 seconds\nTransparency: Transparent\nParticle refractive index: 1.81\nSolvent refractive index: 1.33\nThe 90% cumulative diameter (D90) was measured with a particle size analyzer (Microtrack MT3300EXII). A sample suspension was prepared by dispersing about 30 mg of a lemborexant active pharmaceutical ingredient in 50 mL of a dispersion solvent 0.1% polysorbate 20 aqueous solution. The sample suspension was put into a particle size analyzer, and an appropriate amount of a dispersion solvent was added thereto. The particle size distribution of the sample suspension was measured, and the value of the particle size of the sample was recorded as a cumulative diameter distribution.\nThe measurement conditions for the particle size analyzer are as follows.\nFlow rate: 50% Number of measurements: 3 times Measurement time: 30 seconds\nParticle refractive index: 1.81 Solvent refractive index: 1.33", "data": [{"molecule": "Cc1ncc(OC[C@@]2(c3cccc(F)c3)C[C@H]2C(=O)Nc2ccc(F)cn2)c(C)n1", "note": "[lemborexant, (1R,2S)-2-(((2,4-dimethylpyrimidine-5-yl)oxy)methyl)-2-(3-fluorophenyl)-N-(5-fluoropyridin-2-yl)cyclopropanecarboxamide]", "values": [{"measurement": "D90", "setting": "API used for the tablets of Example 4", "result": 32, "unit": "μm"}]}, {"molecule": "Cc1ncc(OC[C@@]2(c3cccc(F)c3)C[C@H]2C(=O)Nc2ccc(F)cn2)c(C)n1", "note": "[Lot S6]", "values": [{"measurement": "D90 (μm)", "setting": "listed as S6", "result": 20, "unit": "μm"}]}, {"molecule": "Cc1ncc(OC[C@@]2(c3cccc(F)c3)C[C@H]2C(=O)Nc2ccc(F)cn2)c(C)n1", "note": "[Lot 8]", "values": [{"measurement": "Particle size (D90 (μm))", "setting": "listed as 8", "result": 35, "unit": "μm"}]}, {"molecule": "Cc1ncc(OC[C@@]2(c3cccc(F)c3)C[C@H]2C(=O)Nc2ccc(F)cn2)c(C)n1", "note": "[Lot 6]", "values": [{"measurement": "Particle size (D90 (μm))", "setting": "listed as 6", "result": 23, "unit": "μm"}]}, {"molecule": "Cc1ncc(OC[C@@]2(c3cccc(F)c3)C[C@H]2C(=O)Nc2ccc(F)cn2)c(C)n1", "note": "[Lot S2]", "values": [{"measurement": "D90 (μm)", "setting": "listed as S2", "result": 79, "unit": "μm"}]}, {"molecule": "Cc1ncc(OC[C@@]2(c3cccc(F)c3)C[C@H]2C(=O)Nc2ccc(F)cn2)c(C)n1", "note": "[Lot 7]", "values": [{"measurement": "Particle size (D90 (μm))", "setting": "listed as 7", "result": 40, "unit": "μm"}]}, {"molecule": "Cc1ncc(OC[C@@]2(c3cccc(F)c3)C[C@H]2C(=O)Nc2ccc(F)cn2)c(C)n1", "note": "[Lot S4]", "values": [{"measurement": "D90 (μm)", "setting": "listed as S4", "result": 56, "unit": "μm"}]}, {"molecule": "Cc1ncc(OC[C@@]2(c3cccc(F)c3)C[C@H]2C(=O)Nc2ccc(F)cn2)c(C)n1", "note": "[Lot 5]", "values": [{"measurement": "Particle size (D90 (μm))", "setting": "listed as 5", "result": 39, "unit": "μm"}]}, {"molecule": "Cc1ncc(OC[C@@]2(c3cccc(F)c3)C[C@H]2C(=O)Nc2ccc(F)cn2)c(C)n1", "note": "[Lot 1]", "values": [{"measurement": "Particle size (D90 (μm))", "setting": "listed as 1", "result": 47, "unit": "μm"}]}, {"molecule": "Cc1ncc(OC[C@@]2(c3cccc(F)c3)C[C@H]2C(=O)Nc2ccc(F)cn2)c(C)n1", "note": "[Lot 2]", "values": [{"measurement": "Particle size (D90 (μm))", "setting": "listed as 2", "result": 18, "unit": "μm"}]}, {"molecule": "Cc1ncc(OC[C@@]2(c3cccc(F)c3)C[C@H]2C(=O)Nc2ccc(F)cn2)c(C)n1", "note": "[Lot S5]", "values": [{"measurement": "D90 (μm)", "setting": "listed as S5", "result": 110, "unit": "μm"}]}, {"molecule": "Cc1ncc(OC[C@@]2(c3cccc(F)c3)C[C@H]2C(=O)Nc2ccc(F)cn2)c(C)n1", "note": "[Lot 9]", "values": [{"measurement": "Particle size (D90 (μm))", "setting": "listed as 9", "result": 34, "unit": "μm"}]}, {"molecule": "Cc1ncc(OC[C@@]2(c3cccc(F)c3)C[C@H]2C(=O)Nc2ccc(F)cn2)c(C)n1", "note": "[Lot S1]", "values": [{"measurement": "D90 (μm)", "setting": "listed as S1", "result": 98, "unit": "μm"}]}, {"molecule": "Cc1ncc(OC[C@@]2(c3cccc(F)c3)C[C@H]2C(=O)Nc2ccc(F)cn2)c(C)n1", "note": "[Lot S3]", "values": [{"measurement": "D90 (μm)", "setting": "listed as S3", "result": 64, "unit": "μm"}]}, {"molecule": "Cc1ncc(OC[C@@]2(c3cccc(F)c3)C[C@H]2C(=O)Nc2ccc(F)cn2)c(C)n1", "note": "[Lot 4]", "values": [{"measurement": "Particle size (D90 (μm))", "setting": "listed as 4", "result": 32, "unit": "μm"}]}, {"molecule": "Cc1ncc(OC[C@@]2(c3cccc(F)c3)C[C@H]2C(=O)Nc2ccc(F)cn2)c(C)n1", "note": "[Lot 3]", "values": [{"measurement": "Particle size (D90 (μm))", "setting": "listed as 3", "result": 48, "unit": "μm"}]}]}
